Reference: patent US9320271B2, “Microbial composition” (Rohm and Haas Company, priority 2011, dated 2016)

What was measured:
[1] = test system: Escherichia coli (10536 strain); test: 15 second contact kill test versus E. coli (actives in water, mean bacterial survival NMBS); type: cell-based; conditions: component alone; for MBC (minimum biocidal concentration of antimicrobial components): Table 27; for Antimicrobial alcohol MBC: Table 28, E. coli
Procedure: 15 Second Contact Kill Test Versus E. Coli and S. Aureus
Antimicrobial efficacy is tested against a representative pathogenic bacterial organism, Gram negative Escherichia coli. Concentrations of actives are expressed in terms of the percentage weight/volume (% w/v) throughout Example 1.
An overnight culture of Escherichia coli (10536 strain) was prepared in 50 ml total volume of TSB broth, grown for ca. 18 hrs at 37° C. and shaken at 150 rpm. 1 ml of this overnight E. coli culture was transferred to 50 ml of fresh TSB broth and incubated at 37° C. at 150 rpm for ca. 4 hours. This culture was separated into equal volumes and centrifuged at 4000 rpm for 15 minutes, washed with sterile saline (0.85% NaCl), centrifuged once more and re-suspended in saline to give a final concentration of 0.8 OD620 equivalent to about 10^8 cells per milliliter for this particular organism. Here, OD620 indicates the absorbance of a sample in a cuvette of 1.0 cm path length at a wavelength of 620 nm. This bacterial stock was used for assaying against antimicrobial actives (in triplicate). S. Aureus Bacterial Stock
The following assay describes the testing of 8 materials using 6 dilutions across half of a 96-well micro titre plate (MTP). Using this approach it is possible to assay 16 actives (without replicates) with one full dilution plate, replicating this set up in two halves of the plate columns, 1-6 and 7-12. 1M solutions of the test actives were prepared in dimethylsulphoxide (DMSO). […] Aliquots (270 μl) of the materials at 1.11 times the final concentration were dispensed into the wells of the MTP along one column (A1-H1). This MTP was labelled as the “Screening plate”. In another MTP, labelled as the “Dilution plate”, […] of D/E neutralising solution from DIFCO Composition was added to column 1. The composition of the neutralising solution was as follows: pancreatic digest of casein, 5.0 g/L; Yeast Extract, 2.5 g/L; Dextrose, 10 g/L, sodium thioglycollate, 1.0 g/L, sodium thiosulphate, 6.0 g/L; sodium bisulphite, 2.5 g/L; Polysorbate 80, 5.0 g/L; lecithin 7.0 g/L; bromocresol purple, 0.02 g/L with a pH in the range 7.6±0.2. 270 μl of tryptone diluent solution was added to all the remaining wells of the Dilution MTP (columns 2-6). Bacterial stock (30 μl) was then added to the prepared 270 μl of the solution of actives in the Screening Plate and mixed, using a multichannel pipette with 8 tips to aspirate and dispense the same volume of bacterial stock in parallel to 8 wells in rows A-H. After a contact time of 15 seconds, the mixtures were quenched by transferring 30 μl volumes of the mixtures into the 270 μl D/E neutralising solution in the prepared dilution plate, using aspiration to mix. After exactly 5 minutes in the D/E neutralising solution, 30 μl volumes were transferred from column 1 to column 2 of the Dilution MTP and mixed, before transferring further 30 μl volumes from column 2 into column 3. This process was repeated serially diluting the bacteria across the plate to column 6. 30 μl volumes from each well in the Dilution MTP were transferred onto pre-labelled segment of Tryptone Soya Agar (TSA) plates starting from the lowest bacterial concentration (highest dilution, column 6) to the highest bacterial concentration (column 1). The TSA plates were allowed to stand for ca. 2 hours so that the 30 μl inocula spots could dry and the plates were then inverted and incubated overnight at 37° C. before enumerating the bacterial colonies at the labelled dilutions to determine the effects of the actives on bacterial growth. Calculation of Results Mean bacterial survival numbers NMBS (expressed in Log CFU/ml) are obtained by first determining the segment of the TSA plate where the number of bacterial colonies is countable.

[2] = test system: Escherichia coli (E. coli—ATCC #10536); test: Automated assessment of efficacy in surfactant base (2.85% sodium cocoyl glycinate and 1.85% sodium lauroamphoacetate, pH 10.0), 15 seconds exposure; type: cell-based; conditions: for Δ OD 450 nm = OD450 (time = 16 hours) − OD450 (time zero), Mean / Δ OD 590 nm OD590 (time = 16 hours) − OD590 (time zero), Mean / No. of replicates showing growth (out of 4): alone, model surfactant solution; for MBC (minimum biocidal concentration): in 2.85% sodium cocoyl glycinate + 1.85% sodium lauroamphoacetate solution at pH 10, E. coli
Procedure: Test Methodology for Automated Assessment of Efficacy in Surfactant Base Microbiocidal Activity of Actives as Per the Invention in a Model Surfactant Medium Test Methodology for Automated Assessment of Efficacy in Surfactant Base In these examples, the efficacy of combinations of actives were tested in a surfactant cleansing formulation comprising 2.85% sodium cocoyl glycinate and 1.85% sodium lauroamphoacetate. This corresponds to a 50% in use dilution with water of a neat formulation containing 5.7% cocoyl glycinate and […] % sodium, lauroamphoacetate during hand washing. Solutions were prepared such that the concentrations of the surfactant components and test actives were 1.1× the final desired concentration in order to allow for dilution with the bacterial inoculum in the test. The solutions were manually adjusted to pH 10.0 by dropwise addition of sodium hydroxide solution, as measured with a pH meter at ambient temperature. The efficacy of the combinations of the present invention was determined against Escherichia coli (E. coli—ATCC #10536), at a concentration of approximately 1×10^8 bacteria per mL. Tests were conducted using standard microtiter plate assays using an automated liquid handling system. 270 μl of the surfactant test solution was pipetted into each well of the microtitre plate and 30 μl of the bacterial suspension was then added. Alter exactly 15 seconds of bacterial exposure, a 30 μl volume of bacterial cells was withdrawn and transferred to 270 μl of D/E quench solution. After 5 minutes in the D/E quench, the optical density (OD) was measured for each plate in turn at two specific wavelengths (450 nm and 590 nm). These provide a dual check of antimicrobial activity, as the OD450 reading is specific for the yellow colour of D/E quench when bacterial growth is observed, whereas OD590 is specific for the initial purple colour of the D/E quench which is retained if no bacterial growth is observed. After the time zero OD measurements, plates were then incubated at 37° C. overnight (16 hours) before repeating the OD measurements. Delta OD values were calculated by subtracting […]. Bacterial growth is observed as an increase in OD450 and a decrease in ΔOD590. To identify antibacterially efficacious systems (those preventing appreciable bacterial growth after incubation), the following threshold changes in OD readings have been adopted: if (1). OD450 increases by less than 0.2 absorbance unit on incubation and (2). OD590 decreases by less than 0.35 unit on incubation. Conversely, where OD450 increases by more than 0.2 AU and OD590 decreases by more than 0.35 unit after incubation, corresponding to a colour shift from purple to yellow, the test system allows bacterial growth and is not deemed efficacious. Four replicate measurements in the same plate have been made for each test system. The number of replicate wells showing either bacterial growth or no growth is also readily assessed by eye by following the colour change. Dose responses for individual components and binary mixtures of actives at a fixed concentration ratio were generated by sequential dilution of liquors with further surfactant solution to obtain a series of endpoints. […] In some selected cases, the combinations were also tested at the weight ratio 1:1.

Compound	MBC (minimum biocidal concentration of antimicrobial components) [1] [% w/v]	Antimicrobial alcohol MBC [1]	Δ OD 450 nm = OD450 (time = 16 hours) − OD450 (time zero), Mean ([2]; 0.2% w/v)	Δ OD 590 nm OD590 (time = 16 hours) − OD590 (time zero), Mean ([2]; 0.2% w/v)	Δ OD 450 nm = OD450 (time = 16 hours) − OD450 (time zero), Mean ([2]; 0.3% w/v)	Δ OD 590 nm OD590 (time = 16 hours) − OD590 (time zero), Mean ([2]; 0.3% w/v)	No. of replicates showing growth (out of 4) ([2]; 0.5% w/v)	Δ OD 450 nm = OD450 (time = 16 hours) − OD450 (time zero), Mean ([2]; 0.5% w/v)	Δ OD 590 nm OD590 (time = 16 hours) − OD590 (time zero), Mean ([2]; 0.5% w/v)	Δ OD 450 nm = OD450 (time = 16 hours) − OD450 (time zero), Mean ([2]; […] w/v)	Δ OD 590 nm OD590 (time = 16 hours) − OD590 (time zero), Mean ([2]; […] w/v)	MBC (minimum biocidal concentration) [2] [% w/v]	No. of replicates showing growth (out of 4) ([2]; 0.3% w/v)
CC1=CC[C@@H](CO)[C@H](C)C1 (relative stereo) [floralol, Trans-4,6-dimethyl-3-Cyclohexene-1-methanol]	0.3	0.3 % (w/v)	−1.43	0.35	−1.20	0.55	0	−0.06	0.09	−0.29	0.23	0.4	
CC1CCC(CO)C(C)C1 (stereo not shown) [dihydrofloralol, 2,4-Dimethylcyclohexylmethanol]	0.5	0.5 % (w/v)	−1.39	0.41	−1.15	0.60	0	−0.06	0.10	−0.28	0.28	0.4	4
